{"source": "patent US8227620B2", "about": "“Pharmaceutical compounds” (Neuroscienze Pharmaness S.C. A.R.L., priority 2004, dated 2012)", "target": "CB1 receptors (Rattus norvegicus, UniProt P20272)", "sequence (P20272 whole entry)": "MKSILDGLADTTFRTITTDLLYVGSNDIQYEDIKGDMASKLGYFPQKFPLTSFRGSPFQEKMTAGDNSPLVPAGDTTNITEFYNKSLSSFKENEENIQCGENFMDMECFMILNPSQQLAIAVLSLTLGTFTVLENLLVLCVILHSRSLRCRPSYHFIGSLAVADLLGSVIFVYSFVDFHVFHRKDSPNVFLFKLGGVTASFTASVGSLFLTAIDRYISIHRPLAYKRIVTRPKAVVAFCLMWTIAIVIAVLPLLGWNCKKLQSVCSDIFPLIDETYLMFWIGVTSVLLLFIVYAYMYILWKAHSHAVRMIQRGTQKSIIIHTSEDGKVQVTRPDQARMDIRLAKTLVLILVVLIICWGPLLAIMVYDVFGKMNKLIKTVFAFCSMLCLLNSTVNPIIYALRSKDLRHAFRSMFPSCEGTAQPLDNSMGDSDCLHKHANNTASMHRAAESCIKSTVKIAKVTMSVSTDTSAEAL", "assay": "Antagonism of WIN 55,212-2 induced hypothermia in vivo", "settings": "for capability to pass the hemato-encephalic barrier: concluded from the hypothermia test; for antagonism of the body temperature reduction induced by WIN 55,212-2: i.p., compound 30 minutes before WIN 55,212-2 (3 mg/kg)", "method": "The rectal temperature in the rat was determined by an electronic thermometer inserted at a 2 mm depth. The measurements were carried out on rats acclimated for one hour. The rectal temperature was determined before and after (from 30 to 120 minutes) the i.p. administration of the compound to be tested.\nEach test was repeated on ten animals; the reported results are the average of the results obtained with the ten animals.", "key": {"[1]": {"settings": "WIN 55,212-2 (3 mg/kg) + compound 0.1 mg/kg, 0 min from WIN administration"}, "[2]": {"settings": "WIN 55,212-2 (3 mg/kg) + compound 0.1 mg/kg, 15 min"}, "[3]": {"settings": "WIN 55,212-2 (3 mg/kg) + compound 0.1 mg/kg, 30 min"}, "[4]": {"settings": "WIN 55,212-2 (3 mg/kg) + compound 0.1 mg/kg, 60 min"}, "[5]": {"settings": "WIN 55,212-2 (3 mg/kg) + compound 0.1 mg/kg, 90 min"}, "[6]": {"settings": "WIN 55,212-2 (3 mg/kg) + compound 0.1 mg/kg, 120 min"}, "[7]": {"settings": "WIN 55,212-2 (3 mg/kg) + compound 0.5 mg/kg, 0 min from WIN administration"}, "[8]": {"settings": "WIN 55,212-2 (3 mg/kg) + compound 0.5 mg/kg, 15 min"}, "[9]": {"settings": "WIN 55,212-2 (3 mg/kg) + compound 0.5 mg/kg, 30 min"}, "[10]": {"settings": "WIN 55,212-2 (3 mg/kg) + compound 0.5 mg/kg, 60 min"}, "[11]": {"settings": "WIN 55,212-2 (3 mg/kg) + compound 0.5 mg/kg, 90 min"}, "[12]": {"settings": "WIN 55,212-2 (3 mg/kg) + compound 0.5 mg/kg, 120 min"}, "[13]": {"settings": "WIN 55,212-2 (3 mg/kg) + compound 1.0 mg/kg, 0 min from WIN administration"}, "[14]": {"settings": "WIN 55,212-2 (3 mg/kg) + compound 1.0 mg/kg, 15 min"}, "[15]": {"settings": "WIN 55,212-2 (3 mg/kg) + compound 1.0 mg/kg, 30 min"}, "[16]": {"settings": "WIN 55,212-2 (3 mg/kg) + compound 1.0 mg/kg, 60 min"}, "[17]": {"settings": "WIN 55,212-2 (3 mg/kg) + compound 1.0 mg/kg, 90 min"}, "[18]": {"settings": "WIN 55,212-2 (3 mg/kg) + compound 1.0 mg/kg, 120 min"}, "[19]": {"settings": "WIN 55,212-2 (3 mg/kg) + compound 3.0 mg/kg, 0 min from WIN administration"}, "[20]": {"settings": "WIN 55,212-2 (3 mg/kg) + compound 3.0 mg/kg, 15 min"}, "[21]": {"settings": "WIN 55,212-2 (3 mg/kg) + compound 3.0 mg/kg, 30 min"}, "[22]": {"settings": "WIN 55,212-2 (3 mg/kg) + compound 3.0 mg/kg, 60 min"}, "[23]": {"settings": "WIN 55,212-2 (3 mg/kg) + compound 3.0 mg/kg, 90 min"}, "[24]": {"settings": "WIN 55,212-2 (3 mg/kg) + compound 3.0 mg/kg, 120 min"}, "[25]": {"settings": "WIN 55,212-2 (3 mg/kg) + compound 6.0 mg/kg, 0 min from WIN administration"}, "[26]": {"settings": "WIN 55,212-2 (3 mg/kg) + compound 6.0 mg/kg, 15 min"}, "[27]": {"settings": "WIN 55,212-2 (3 mg/kg) + compound 6.0 mg/kg, 30 min"}, "[28]": {"settings": "WIN 55,212-2 (3 mg/kg) + compound 6.0 mg/kg, 60 min"}, "[29]": {"settings": "WIN 55,212-2 (3 mg/kg) + compound 6.0 mg/kg, 90 min"}, "[30]": {"settings": "WIN 55,212-2 (3 mg/kg) + compound 6.0 mg/kg, 120 min"}}}
{"molecule": "Cc1c(C(=O)NN2CCCCC2)nn(-c2ccc(Cl)cc2Cl)c1-c1ccc(Cl)s1", "note": "[Example 3.1b, N-piperidinyl-5-(5-Chloro-thiophen-2-yl)-1-(2′,4′-dichloro-phenyl)-4-methyl-1H-pyrazol-3-carboxamide]", "values": [{"measurement": "Body temperature (° C.)", "setting": "[1]", "result": 38.5, "unit": "°C"}, {"measurement": "Body temperature (° C.)", "setting": "[2]", "result": 35.1, "unit": "°C"}, {"measurement": "Body temperature (° C.)", "setting": "[3]", "result": 33.8, "unit": "°C"}, {"measurement": "Body temperature (° C.)", "setting": "[4]", "result": 35.3, "unit": "°C"}, {"measurement": "Body temperature (° C.)", "setting": "[5]", "result": 36.9, "unit": "°C"}, {"measurement": "Body temperature (° C.)", "setting": "[6]", "result": 37.3, "unit": "°C"}, {"measurement": "Body temperature (° C.)", "setting": "[7]", "result": 38.1, "unit": "°C"}, {"measurement": "Body temperature (° C.)", "setting": "[8]", "result": 35.8, "unit": "°C"}, {"measurement": "Body temperature (° C.)", "setting": "[9]", "result": 34.5, "unit": "°C"}, {"measurement": "Body temperature (° C.)", "setting": "[10]", "result": 35.7, "unit": "°C"}, {"measurement": "Body temperature (° C.)", "setting": "[11]", "result": 36.7, "unit": "°C"}, {"measurement": "Body temperature (° C.)", "setting": "[12]", "result": 37.3, "unit": "°C"}, {"measurement": "Body temperature (° C.)", "setting": "[13]", "result": 38.3, "unit": "°C"}, {"measurement": "Body temperature (° C.)", "setting": "[14]", "result": 36.1, "unit": "°C"}, {"measurement": "Body temperature (° C.)", "setting": "[15]", "result": 35.7, "unit": "°C"}, {"measurement": "Body temperature (° C.)", "setting": "[16]", "result": 36.8, "unit": "°C"}, {"measurement": "Body temperature (° C.)", "setting": "[17]", "result": 37.8, "unit": "°C"}, {"measurement": "Body temperature (° C.)", "setting": "[18]", "result": 37.9, "unit": "°C"}, {"measurement": "Body temperature (° C.)", "setting": "[19]", "result": 38.4, "unit": "°C"}, {"measurement": "Body temperature (° C.)", "setting": "[20]", "result": 36.1, "unit": "°C"}, {"measurement": "Body temperature (° C.)", "setting": "[21]", "result": 35.7, "unit": "°C"}, {"measurement": "Body temperature (° C.)", "setting": "[22]", "result": 36.8, "unit": "°C"}, {"measurement": "Body temperature (° C.)", "setting": "[23]", "result": 37.8, "unit": "°C"}, {"measurement": "Body temperature (° C.)", "setting": "[24]", "result": 37.9, "unit": "°C"}, {"measurement": "Body temperature (° C.)", "setting": "[25]", "result": 38.6, "unit": "°C"}, {"measurement": "Body temperature (° C.)", "setting": "[26]", "result": 37.7, "unit": "°C"}, {"measurement": "Body temperature (° C.)", "setting": "[27]", "result": 37.9, "unit": "°C"}, {"measurement": "Body temperature (° C.)", "setting": "[28]", "result": 37.9, "unit": "°C"}, {"measurement": "Body temperature (° C.)", "setting": "[29]", "result": 38.2, "unit": "°C"}, {"measurement": "Body temperature (° C.)", "setting": "[30]", "result": 37.9, "unit": "°C"}, {"measurement": "capability to pass the hemato-encephalic barrier", "result": "capable to pass the hemato-encephalic barrier"}, {"measurement": "CB1 antagonist behaviour in vivo", "setting": "hypothermia test", "result": "shows a CB1 antagonist behaviour"}, {"measurement": "antagonism of the body temperature reduction induced by WIN 55,212-2", "result": "able to antagonize the effect of WIN 55,212-2"}]}
{"molecule": "N-pyrrolidinyl-5-(5-Chloro-thiophen-2-yl)-1-(2,4′-dichloro-phenyl)-4-methyl-1H-pyrazol-3-carboxamide [Example 3.1d]", "values": [{"measurement": "Body temperature (° C.)", "setting": "[1]", "result": 38.1, "unit": "°C"}, {"measurement": "Body temperature (° C.)", "setting": "[2]", "result": 35.3, "unit": "°C"}, {"measurement": "Body temperature (° C.)", "setting": "[3]", "result": 33.8, "unit": "°C"}, {"measurement": "Body temperature (° C.)", "setting": "[4]", "result": 35.6, "unit": "°C"}, {"measurement": "Body temperature (° C.)", "setting": "[5]", "result": 36.5, "unit": "°C"}, {"measurement": "Body temperature (° C.)", "setting": "[6]", "result": 37.2, "unit": "°C"}, {"measurement": "Body temperature (° C.)", "setting": "[7]", "result": 38.1, "unit": "°C"}, {"measurement": "Body temperature (° C.)", "setting": "[8]", "result": 35.7, "unit": "°C"}, {"measurement": "Body temperature (° C.)", "setting": "[9]", "result": 34.4, "unit": "°C"}, {"measurement": "Body temperature (° C.)", "setting": "[10]", "result": 35.0, "unit": "°C"}, {"measurement": "Body temperature (° C.)", "setting": "[11]", "result": 36.3, "unit": "°C"}, {"measurement": "Body temperature (° C.)", "setting": "[12]", "result": 37.2, "unit": "°C"}, {"measurement": "Body temperature (° C.)", "setting": "[13]", "result": 37.9, "unit": "°C"}, {"measurement": "Body temperature (° C.)", "setting": "[14]", "result": 36.5, "unit": "°C"}, {"measurement": "Body temperature (° C.)", "setting": "[15]", "result": 34.7, "unit": "°C"}, {"measurement": "Body temperature (° C.)", "setting": "[16]", "result": 35.8, "unit": "°C"}, {"measurement": "Body temperature (° C.)", "setting": "[17]", "result": 36.7, "unit": "°C"}, {"measurement": "Body temperature (° C.)", "setting": "[18]", "result": 37.1, "unit": "°C"}, {"measurement": "Body temperature (° C.)", "setting": "[19]", "result": 38.4, "unit": "°C"}, {"measurement": "Body temperature (° C.)", "setting": "[20]", "result": 37.0, "unit": "°C"}, {"measurement": "Body temperature (° C.)", "setting": "[21]", "result": 36.8, "unit": "°C"}, {"measurement": "Body temperature (° C.)", "setting": "[22]", "result": 37.3, "unit": "°C"}, {"measurement": "Body temperature (° C.)", "setting": "[23]", "result": 37.7, "unit": "°C"}, {"measurement": "Body temperature (° C.)", "setting": "[24]", "result": 37.6, "unit": "°C"}, {"measurement": "Body temperature (° C.)", "setting": "[25]", "result": 37.8, "unit": "°C"}, {"measurement": "Body temperature (° C.)", "setting": "[26]", "result": 36.9, "unit": "°C"}, {"measurement": "Body temperature (° C.)", "setting": "[27]", "result": 36.9, "unit": "°C"}, {"measurement": "Body temperature (° C.)", "setting": "[28]", "result": 37.2, "unit": "°C"}, {"measurement": "Body temperature (° C.)", "setting": "[29]", "result": 37.8, "unit": "°C"}, {"measurement": "Body temperature (° C.)", "setting": "[30]", "result": 37.9, "unit": "°C"}, {"measurement": "capability to pass the hemato-encephalic barrier", "result": "able to pass the hemato-encephalic barrier"}, {"measurement": "antagonism of the body temperature reduction induced by WIN 55,212-2", "result": "able to antagonize the effect of WIN 55,212-2"}]}
